In ChEMBL document CHEMBL1153535, “Nitazoxanide kills replicating and nonreplicating Mycobacterium tuberculosis and evades resistance” (J Med Chem, 2009):
Values after ≈ are worked out from the molar mass of the structure shown.

Legend:
[1] = test system: Mycobacterium tuberculosis; test: Antimycobacterial activity against Mycobacterium bovis var. bovis BCG in 7H11 solid medium after 7 days; format: functional; conditions: variant bovis BCG, 168 h
[2] = test system: Mycobacterium tuberculosis; test: Antimycobacterial activity against Mycobacterium bovis var. bovis BCG in 7H9 liquid medium after 7 days; format: functional; conditions: variant bovis BCG, 168 h

`CC(=O)Oc1ccccc1C(=O)Nc1ncc([N+](=O)[O-])s1` [NITAZOXANIDE] was tested, and the MIC [1] was 16 µg/mL (≈ 52.1 µM) and the MIC [2] was 16 µg/mL (≈ 52.1 µM).
